This is an account of results in patent EP1247803A2, “Indolinone compounds suitable for modulation of protein kinases” (Sugen, Inc., priority 1996, dated 1998).

Assay [1] concerns the target PDGF-R (Homo sapiens, UniProt P09619). In words: PDGF-R ELISA. The class given is cell-based. An excerpt:
A PDGF-R ELISA is described in International Patent Publication No. WO 96/40116, published December 19, 1996 by Tang et al.

Assay [2] deals with T1, EGFR (Homo sapiens, UniProt P00533).
T1 construct: Add 7 ug A431 cell lysate per well (EGFR source); endogenous in cells; host or cells: A431
Briefly: EGFR ELISA assay (in vitro kinase activity, EGFR captured from A431 cell lysate). The class given is biochemical. More on the design: concentration or dose not given beside the values. Put shortly:
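EGFR from A431 lysate was captured on anti-EGFR antibody-coated plates and preincubated with compounds for 30 min. Autophosphorylation ran 5 min with 3 uM ATP and 5 mM MnCl2 (final), stopped with 20 mM EDTA. Phosphotyrosine was detected by anti-pTyr ELISA with ABTS/H2O2, read at 410 nm.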
(An ELISA detects its analyte on a solid surface through an enzyme-linked reagent.)

Sequence of PDGF-R (P09619 33-1106, species assumed): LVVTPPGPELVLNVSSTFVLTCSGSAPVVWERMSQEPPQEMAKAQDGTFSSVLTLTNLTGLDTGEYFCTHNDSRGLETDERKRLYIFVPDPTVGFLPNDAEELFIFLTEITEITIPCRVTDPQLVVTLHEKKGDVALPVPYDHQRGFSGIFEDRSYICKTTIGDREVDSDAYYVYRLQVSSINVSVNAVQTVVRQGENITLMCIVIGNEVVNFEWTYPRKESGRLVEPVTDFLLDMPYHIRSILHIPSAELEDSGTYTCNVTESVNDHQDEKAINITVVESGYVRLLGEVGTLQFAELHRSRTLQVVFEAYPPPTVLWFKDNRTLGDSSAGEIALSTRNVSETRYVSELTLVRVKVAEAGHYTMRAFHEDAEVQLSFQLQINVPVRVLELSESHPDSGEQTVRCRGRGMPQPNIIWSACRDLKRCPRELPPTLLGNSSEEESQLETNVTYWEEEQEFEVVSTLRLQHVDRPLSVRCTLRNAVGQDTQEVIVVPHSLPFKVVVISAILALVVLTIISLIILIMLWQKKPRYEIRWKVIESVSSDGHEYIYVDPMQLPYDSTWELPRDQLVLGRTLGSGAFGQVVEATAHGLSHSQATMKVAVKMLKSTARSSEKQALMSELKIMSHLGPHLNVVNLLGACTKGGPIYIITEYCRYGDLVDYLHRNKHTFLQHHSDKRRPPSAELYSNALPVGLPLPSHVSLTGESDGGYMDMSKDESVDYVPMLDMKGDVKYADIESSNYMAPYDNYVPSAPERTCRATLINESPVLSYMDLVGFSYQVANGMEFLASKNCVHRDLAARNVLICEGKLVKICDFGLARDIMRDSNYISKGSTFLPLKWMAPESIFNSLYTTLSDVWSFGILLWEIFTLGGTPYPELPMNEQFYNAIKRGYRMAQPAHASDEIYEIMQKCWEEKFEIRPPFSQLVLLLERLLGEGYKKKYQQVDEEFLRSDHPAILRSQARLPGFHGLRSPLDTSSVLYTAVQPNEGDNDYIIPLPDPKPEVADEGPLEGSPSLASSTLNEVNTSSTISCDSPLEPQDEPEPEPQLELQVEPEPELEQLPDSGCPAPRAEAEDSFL
T1 sequence (P00533 25-1210): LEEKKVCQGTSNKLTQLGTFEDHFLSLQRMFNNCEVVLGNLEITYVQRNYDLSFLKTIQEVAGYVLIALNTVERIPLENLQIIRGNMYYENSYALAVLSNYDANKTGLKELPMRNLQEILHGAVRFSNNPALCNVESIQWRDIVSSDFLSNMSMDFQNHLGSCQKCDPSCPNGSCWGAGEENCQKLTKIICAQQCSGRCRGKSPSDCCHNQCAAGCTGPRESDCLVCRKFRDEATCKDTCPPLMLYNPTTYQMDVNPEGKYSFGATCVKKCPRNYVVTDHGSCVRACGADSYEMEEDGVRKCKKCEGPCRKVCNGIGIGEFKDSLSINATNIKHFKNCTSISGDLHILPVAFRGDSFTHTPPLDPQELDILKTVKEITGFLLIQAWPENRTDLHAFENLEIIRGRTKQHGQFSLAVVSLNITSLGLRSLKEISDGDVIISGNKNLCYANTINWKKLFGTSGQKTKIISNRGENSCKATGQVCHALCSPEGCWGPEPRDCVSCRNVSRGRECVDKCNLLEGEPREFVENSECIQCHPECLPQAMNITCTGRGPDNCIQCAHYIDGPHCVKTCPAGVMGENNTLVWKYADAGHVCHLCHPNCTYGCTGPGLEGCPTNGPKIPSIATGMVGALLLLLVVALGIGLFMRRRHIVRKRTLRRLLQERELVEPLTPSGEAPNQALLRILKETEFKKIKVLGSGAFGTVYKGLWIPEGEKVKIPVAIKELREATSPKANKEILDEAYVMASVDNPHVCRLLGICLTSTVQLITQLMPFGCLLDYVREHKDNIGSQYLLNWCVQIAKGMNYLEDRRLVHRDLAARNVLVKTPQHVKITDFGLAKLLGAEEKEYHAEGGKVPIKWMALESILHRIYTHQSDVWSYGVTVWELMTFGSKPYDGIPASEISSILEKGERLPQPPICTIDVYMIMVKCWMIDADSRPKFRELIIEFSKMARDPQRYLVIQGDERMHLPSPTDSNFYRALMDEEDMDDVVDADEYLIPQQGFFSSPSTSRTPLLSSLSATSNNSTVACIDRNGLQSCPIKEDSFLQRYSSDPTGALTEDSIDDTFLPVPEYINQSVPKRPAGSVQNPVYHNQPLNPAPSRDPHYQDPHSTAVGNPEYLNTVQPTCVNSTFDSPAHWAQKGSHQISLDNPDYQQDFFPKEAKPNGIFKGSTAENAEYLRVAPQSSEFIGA

Take `CC(C)(C)c1cc(C=C2C(=O)Nc3ccc(S(=O)(=O)Nc4ccc(C(F)(F)F)cc4)cc32)cc(Br)c1OCc1ccccc1` [10732/E08]: in assay [1], the “PDGF Kinase %Inhibition” value is 32.6%. In addition, the “Biochem EGFR %Inhibition” value in assay [2] is recorded as -21.7%.
On the same counts, the results for `CC(C)c1cc(C=C2C(=O)Nc3ccc(CCCl)cc32)cc(C(C)C)c1Oc1ccccc1` [10732/G04] are 25.0% and 8.0%.
On the same counts, the results for `CC(C)c1cc(C=C2C(=O)Nc3ccc(S(=O)(=O)N4CCOCC4)cc32)cc(C(C)C)c1Oc1ccccc1` [10732/F04] are 23.5% and -0.1%.
With `CNS(=O)(=O)c1ccc2c(c1)C(=Cc1cc([N+](=O)[O-])ccc1O)C(=O)N2` [10733/D10], in assay [1], the “PDGF Kinase %Inhibition” value is recorded as -10.1%. Besides, the “Biochem EGFR %Inhibition” value in assay [2] is listed as 46.8%.
In the case of `COc1c(Cl)cc(C=C2C(=O)Nc3ccc(S(=O)(=O)N4CCOCC4)cc32)cc1C(C)(C)C` [10732/F09], the “PDGF Kinase %Inhibition” value in assay [1] is 25.5%. In assay [2], the “Biochem EGFR %Inhibition” value is recorded as -13.4%.
Taken in the same sequence, the figures for `COc1ccc(C=C2C(=O)Nc3ccc(CCCl)cc32)cc1C(C)(C)C` [10732/G05] were 15.4% and 3.8%.
On to `COc1c(Cl)cc(C=C2C(=O)Nc3ccc(CCCl)cc32)cc1C(C)(C)C` [10732/G09], for which, in assay [1], the “PDGF Kinase %Inhibition” value is recorded as 9.8%. Besides, the “Biochem EGFR %Inhibition” value in assay [2] was -34.8%.
Consider `COc1c(C(C)C)cc(C=C2C(=O)Nc3ccc(CCCl)cc32)cc1C(C)C` [10732/G03], for which the “PDGF Kinase %Inhibition” value in assay [1] is reported as 36.1%. Besides, the “Biochem EGFR %Inhibition” value in assay [2] was -20.0%.
As to `COc1c(I)cc(C=C2C(=O)Nc3ccc(S(=O)(=O)N4CCOCC4)cc32)cc1C(C)(C)C` [10732/F11], in assay [1], the “PDGF Kinase %Inhibition” value is recorded as 77.5%. Further, the “Biochem EGFR %Inhibition” value in assay [2] is -21.5%.
Turning to `CNS(=O)(=O)c1ccc2c(c1)C(=Cc1cc(Br)ccc1O)C(=O)N2` [10733/D09], in assay [1], the “PDGF Kinase %Inhibition” value stood at 33.8%. In assay [2], the “Biochem EGFR %Inhibition” value amounted to 48.3%.
As to `CC(C)(C)c1cc(C=C2C(=O)Nc3ccc(S(=O)(=O)N4CCOCC4)cc32)cc(Cl)c1OCc1ccccc1` [10732/F10], in assay [1], the “PDGF Kinase %Inhibition” value turned out to be 15.9%. Also, the “Biochem EGFR %Inhibition” value in assay [2] came to 0.8%.
As to `CC(C)(C)c1cc(C=C2C(=O)Nc3ccc(I)cc32)cc(I)c1OCc1ccccc1` [10733/B02], the “PDGF Kinase %Inhibition” value in assay [1] turned out to be 14.7%. Also, in assay [2], the “Biochem EGFR %Inhibition” value is recorded as 31.6%.
Taken in the same sequence, the figures for `CC(C)(C)c1cc(C=C2C(=O)Nc3c(Br)cc(Br)cc32)cc(C(C)(C)C)c1OCc1ccccc1` [10733/A05] were -4.0% and 55.2%.
Take `CC(C)(C)c1cc(C=C2C(=O)Nc3ccc(S(=O)(=O)N4CCOCC4)cc32)ccc1OCc1ccccc1` [10732/F06]: the “PDGF Kinase %Inhibition” value in assay [1] amounted to 0.2%. For the same compound, the “Biochem EGFR %Inhibition” value in assay [2] is given as -8.0%.
In the case of `O=C1Nc2ccc(S(=O)(=O)Nc3ccc(C(F)(F)F)cc3)cc2C1=CC(c1cccs1)C(F)(F)F` (stereo not drawn) [10732/E02], in assay [1], the “PDGF Kinase %Inhibition” value was 4.8%. Besides, the “Biochem EGFR %Inhibition” value in assay [2] was found to be 0.8%.
On the same counts, the results for `CNS(=O)(=O)c1ccc2c(c1)C(=Cc1cc(C(C)(C)C)c(OCc3ccccc3)c(C(C)(C)C)c1)C(=O)N2` [10733/D05] are 16.8% and 10.6%.
Turning to `CNS(=O)(=O)c1ccc2c(c1)C(=Cc1cc(C)c(OC)c(C)c1)C(=O)N2` [10733/D06], in assay [1], the “PDGF Kinase %Inhibition” value came to 1.3%. Besides, the “Biochem EGFR %Inhibition” value in assay [2] was determined as 30.8%.
On to `CC(C)(C)c1cc(C=C2C(=O)Nc3ccc(S(=O)(=O)Nc4ccc(C(F)(F)F)cc4)cc32)ccc1OCc1ccccc1` [10732/E06], for which, in assay [1], the “PDGF Kinase %Inhibition” value came out at 16.9%. In addition, the “Biochem EGFR %Inhibition” value in assay [2] is given as -11.0%.
With `CNS(=O)(=O)c1ccc2c(c1)C(=Cc1ccc(O)c(OC)c1[N+](=O)[O-])C(=O)N2` [10733/D11], the “PDGF Kinase %Inhibition” value in assay [1] is reported as -4.0%. In addition, in assay [2], the “Biochem EGFR %Inhibition” value stood at 33.7%.
On the same counts, the results for `COc1c(O)ccc(C=C2C(=O)Nc3c(Br)cc(Br)cc32)c1[N+](=O)[O-]` [10733/A11] are 4.2% and 23.0%.
With `COc1c([N+](=O)[O-])cc(C=C2C(=O)Nc3ccc(Br)c(C)c32)cc1C(C)(C)C` [10733/C03], the “PDGF Kinase %Inhibition” value in assay [1] was 28.1%. In addition, in assay [2], the “Biochem EGFR %Inhibition” value is on record as 14.4%.
Taken in the same sequence, the figures for `CC(C)(C)c1cc(C=C2C(=O)Nc3ccc(CCCl)cc32)cc(Br)c1OCc1ccccc1` [10732/G08] were 37.6% and -20.4%.
As to `COc1cc(Br)cc(C=C2C(=O)Nc3c(Br)cc(Br)cc32)c1O` [10733/A08], the “PDGF Kinase %Inhibition” value in assay [1] is given as -10.1%. Further, the “Biochem EGFR %Inhibition” value in assay [2] was determined as 19.5%.
Take `CNS(=O)(=O)c1ccc2c(c1)C(=Cc1cc(C)c(OCc3ccccc3)c(C)c1)C(=O)N2` [10733/D07]: the “PDGF Kinase %Inhibition” value in assay [1] came out at 0.9%. In assay [2], the “Biochem EGFR %Inhibition” value was 37.4%.
In the case of `COc1c(C(C)(C)C)cc(C=C2C(=O)Nc3ccc(I)cc32)cc1C(C)(C)C` [10733/B04], the “PDGF Kinase %Inhibition” value in assay [1] is listed as 24.9%. The “Biochem EGFR %Inhibition” value in assay [2] is recorded as 28.5%.
As to `O=C1Nc2ccc(I)cc2C1=Cc1cc([N+](=O)[O-])ccc1O` [10733/B10], the “PDGF Kinase %Inhibition” value in assay [1] is -59.6%. The “Biochem EGFR %Inhibition” value in assay [2] came to 11.8%.
Consider `CC(C)c1cc(C=C2C(=O)Nc3ccc(S(=O)(=O)Nc4ccc(C(F)(F)F)cc4)cc32)cc(C(C)C)c1Oc1ccccc1` [10732/E04], for which the “PDGF Kinase %Inhibition” value in assay [1] is reported as 29.5%. Besides, the “Biochem EGFR %Inhibition” value in assay [2] is listed as -10.6%.
Consider `Cc1cc(C=C2C(=O)Nc3ccc(I)cc32)cc(C)c1OCc1ccccc1` [10733/B07], for which the “PDGF Kinase %Inhibition” value in assay [1] is 4.2%. Further, the “Biochem EGFR %Inhibition” value in assay [2] was 32.7%.
Turning to `CNS(=O)(=O)c1ccc2c(c1)C(=Cc1cc(C(C)(C)C)c(OC)c(C(C)(C)C)c1)C(=O)N2` [10733/D04], the “PDGF Kinase %Inhibition” value in assay [1] stood at 26.5%. For the same compound, the “Biochem EGFR %Inhibition” value in assay [2] was 19.9%.
`COc1c(I)cc(C=C2C(=O)Nc3ccc(CCCl)cc32)cc1C(C)(C)C` [10732/G11]: in assay [1], the “PDGF Kinase %Inhibition” value is listed as 38.6%. Also, the “Biochem EGFR %Inhibition” value in assay [2] is reported as -33.7%.
